# Where two headings read alike, the source gives them in different places.
# Columns and labels:
# HaCaT cells = test: SRB cell viability (cytotoxicity), HaCaT; format: cell-based; conditions: Homo sapiens, HaCaT nonmalignant cells, read-out: IC50 ± SEM HACAT
# Experimental: (§1) Human colon cancer cell lines (SW480 and SW620), together with nonmalignant cells (CHO-K1 and HaCaT) were used to study the biological activity. Cells were purchased from the European Collection of Authenticated Cell Cultures (ECACC, UK). Dulbecco’s Modified Eagle Medium (DMEM) containing heat-inactivated (56 °C) horse serum (10%), non-essential amino acids (1%) and antibiotics (penicillin/streptomycin, 1%) (Gibco Invitrogen, Carlsbad, CA, USA) was used to maintain the cells, reducing the horse serum to 3%, and, adding insulin ([…]), transferrin ([…]) and selenium (5 ng/mL) (ITS-defined medium; Gibco, Invitrogen, Carlsbad, CA, USA) for all the experiments.
# (§2) The colorimetric test with Sulforhodamine B (SRB) was used to evaluate cell viability. Cell density was adjusted to seed 20.000 cells/well in 96-well tissue culture plates. Cells were first incubated for 24 h and then treated with the synthesized hybrids, the lead compounds (PIH and resveratrol), and the reference drug (5-FU) (concentrations between 0.01 and 200 µM), using DMSO (below 1%) as vehicle control. The optimum conditions were 37 °C and 5% CO2. After the end of each treatment, cold trichloroacetic acid (MERCK, 50% v/v) was added and preserved for one hour at 4 °C, to fix the cells. Then, cell proteins were stained with 0.4% (w/v) SRB (Sigma-Aldrich, St. Louis, MO, USA), and subsequently washed with acetic acid (1%) to remove unbound SRB. After air-drying, protein-bound SRB was solubilized in 10 mM Tris-base before reading the absorbance at 492 nm in a microplate reader (Mindray MR-96A). All experiments were performed at least three times.
# SW620 cells = test: SRB cell viability (cytotoxicity), SW620; format: cell-based, human; conditions: for Selectivity Index SI3: CHO-K1/SW620 IC50 ratio; for Selectivity Index SI4: HaCaT/SW620 IC50 ratio; for IC50: Homo sapiens, SW-620, SRB, read-out: IC50 ± SEM SW620
# Experimental: as §1, §2
# SW480 cells = test: SRB cell viability (cytotoxicity), SW480; format: cell-based, human; conditions: for Selectivity Index SI1: CHO-K1/SW480 IC50 ratio; for Selectivity Index SI2: HaCaT/SW480 IC50 ratio; for IC50: Homo sapiens, SW480, SRB, read-out: IC50 ± SEM SW480
# Experimental: as §1, §2
# CHO-K1 cells = test: SRB cell viability (cytotoxicity), CHO-K1; format: cell-based; conditions: Cricetulus griseus, CHO-K1 nonmalignant cells, read-out: IC50 ± SEM CHO
# Experimental: as §1, §2
# HCT 116 cell line = conditions: read-out: IC50 antiproliferative activity; cited from earlier work
# EC9706 cells = test system: EC9706 cells; design: method as in PMID 29475156; conditions: EC9706 esophageal carcinoma cells; read-out: IC50 antiproliferative activity; cited from earlier work
# EC109 cells = test system: EC109 cells; design: method as in PMID 29475156; conditions: EC109 esophageal carcinoma cells; read-out: IC50 antiproliferative activity; cited from earlier work
melting point,Structure (SMILES),IC50 (HaCaT cells; 24 H),IC50 (HaCaT cells; 48 H),Selectivity Index SI3 (SW620 cells; 24 H),Selectivity Index SI4 (SW620 cells; 24 H),Selectivity Index SI3 (SW620 cells; 48 H),IC50 (SW620 cells; 24 H),IC50 (SW620 cells; 48 H),Selectivity Index SI1 (SW480 cells; 24 H),Selectivity Index SI2 (SW480 cells; 24 H),Selectivity Index SI1 (SW480 cells; 48 H),Selectivity Index SI2 (SW480 cells; 48 H),IC50 (SW480 cells; 24 H),IC50 (SW480 cells; 48 H),IC50 (CHO-K1 cells; 24 H),IC50 (CHO-K1 cells; 48 H),Selectivity Index SI4 (SW620 cells; 48 H),IC50 (HCT 116 cell line),IC50 (EC9706 cells),IC50 (EC109 cells)
,"O=C(N/N=C/c1c(O)cc(O)cc1/C=C/c1ccc(O)cc1)c1ccc(F)cc1 [6c, N′-((E)-2,4-dihydroxy-6-((E)-4-hydroxystyryl)benzylidene)-4-fluorobenzohydrazide]",32.8 ± 1.33 µM,14.6 ± 0.8 µM,0.39,0.57,0.96,57.7 ± 3.6 µM,12.5 ± 1 µM,0.77,1.12,1.11,1.35,29.2 ± 3.55 µM,10.8 ± 2 µM,22.6 ± 2.38 µM,12 ± 1.6 µM,,,,
248 to 250 °C,"COc1cccc(C(=O)N/N=C/c2c(O)cc(O)cc2/C=C/c2ccc(O)cc2)c1 [6a, N′-((E)-2,4-dihydroxy-6-((E)-4-hydroxystyryl)benzylidene)-3-methoxybenzohydrazide]",47.5 ± 1.15 µM,2.2 ± 0.2 µM,0.16,0.28,0.31,172 ± 9 µM,41.5 ± 1.2 µM,0.86,1.44,0.52,0.09,33 ± 2.13 µM,24.9 ± 2.8 µM,28.4 ± 1.48 µM,13 ± 1.3 µM,0.05,,,
260 to 262 °C,"COc1ccc(OC)c(C(=O)N/N=C/c2c(O)cc(O)cc2/C=C/c2ccc(O)cc2)c1 [6f, N′-((E)-2,4-dihydroxy-6-((E)-4-hydroxystyryl)benzylidene)-2,5-dimethoxybenzohydrazide]",42.2 ± 5.9 µM,14.9 ± 1.3 µM,0.11,0.21,0.16,> 200 µM,99.4 ± 6.9 µM,0.97,1.80,1.30,1.22,23.4 ± 1.31 µM,12.2 ± 1.2 µM,22.7 ± 2.25 µM,15.9 ± 1.6 µM,0.15,,,
242 to 244 °C,"NC(=S)N/N=C/c1c(O)cc(O)cc1/C=C/c1ccc(O)cc1 [compound 8, 2-((E)-2,4-dihydroxy-6-((E)-4-hydroxystyryl)benzylidene)hydrazine-1-carbothioamide]",60.1 ± 3.99 µM,31.8 ± 1.4 µM,0.41,0.59,0.57,102 ± 3.5 µM,64.1 ± 2.9 µM,1.02,1.47,0.89,0.77,41 ± 3.93 µM,41.2 ± 2.3 µM,41.9 ± 2.83 µM,36.7 ± 3.8 µM,0.50,,,
,O=C(N/N=C/c1c(O)ccc2ccccc12)c1ccncc1 [D],,,,,,,,,,,,,,,,,0.29 µM,,
,CCOc1cccc(/C=N/NC(=O)c2cccc(S(=O)(=O)N3CCOCC3)c2)c1O [I],,,,,,,,,,,,,,,,,,1.09 ± 0.03 µM,2.79 ± 0.45 µM
,O=C(N/N=C/c1ccccc1OCc1ccccc1)c1ccncc1 [C],,,,,,,,,,,,,,,,,3.1 µM,,
,"COc1ccc(C(=O)N/N=C/c2c(O)cc(O)cc2/C=C/c2ccc(O)cc2)cc1 [6b, N′-((E)-2,4-dihydroxy-6-((E)-4-hydroxystyryl)benzylidene)-4-methoxybenzohydrazide]",36.9 ± 3.53 µM,13.9 ± 0.7 µM,,,,160 ± 9.4 µM,37.6 ± 2.9 µM,,,,,36.1 ± 1.97 µM,11.3 ± 2.3 µM,23.4 ± 1.83 µM,14.4 ± 1.7 µM,,,,
,"Cc1ncc(CO)c(/C=N/NC(=O)c2ccncc2)c1O [PIH, pyridoxal isonicotinoyl hydrazone, reference compound]",> 200 µM,101 ± 10.8 µM,1.53,1.19,0.63,> 200 µM,119 ± 7 µM,1.10,0.86,0.67,0.90,> 200 µM,112 ± 5.9 µM,> 200 µM,75.3 ± 6.4 µM,0.85,,,
,"O=c1[nH]cc(F)c(=O)[nH]1 [5-FU, 5-fluorouracil, reference compound]",> 1000 µM,,0.59,,0.96,,,0.35,,0.99,0.68,,,,,0.66,5 µM,,
,"Oc1ccc(/C=C/c2cc(O)cc(O)c2)cc1 [RESV, resveratrol]",> 200 µM,20.2 ± 2.7 µM,0.22,0.42,0.45,> 200 µM,,0.77,1.49,0.52,0.16,,,,64 ± 8.9 µM,0.14,,,
,"COc1cc(OC)cc(C(=O)N/N=C/c2c(O)cc(O)cc2/C=C/c2ccc(O)cc2)c1 [6h, N′-((E)-2,4-dihydroxy-6-((E)-4-hydroxystyryl)benzylidene)-3,5-dimethoxybenzohydrazide]",43.2 ± 4.02 µM,4.5 ± 0.6 µM,,,,126 ± 20.9 µM,26 ± 3.2 µM,,,,,29.1 ± 1.31 µM,7.2 ± 2 µM,22.8 ± 1.31 µM,14 ± 1.2 µM,,,,
,"COc1cccc(C(=O)N/N=C/c2c(O)cc(O)cc2/C=C/c2ccc(O)cc2)c1OC [6d, N′-((E)-2,4-dihydroxy-6-((E)-4-hydroxystyryl)benzylidene)-2,3-dimethoxybenzohydrazide]",49.7 ± 1.96 µM,2.95 ± 0.2 µM,,,,171 ± 8.7 µM,49.9 ± 2.1 µM,,,,,34.8 ± 3.31 µM,20.5 ± 1.9 µM,35.5 ± 2.36 µM,22.4 ± 2.7 µM,,,,
,"COc1ccc(C(=O)N/N=C/c2c(O)cc(O)cc2/C=C/c2ccc(O)cc2)cc1OC [6g, N′-((E)-2,4-dihydroxy-6-((E)-4-hydroxystyryl)benzylidene)-3,4-dimethoxybenzohydrazide]",63.7 ± 5.27 µM,17.7 ± 0.5 µM,,,,191 ± 13 µM,40.3 ± 2.7 µM,,,,,37 ± 2.24 µM,20.2 ± 2.7 µM,33.2 ± 1.99 µM,17.2 ± 2 µM,,,,

# — publication PMC9694494, “Resveratrol/Hydrazone Hybrids: Synthesis and Chemopreventive Activity against Colorectal Cancer Cells” (Pharmaceutics, 2022)
